Reference: US6613718B2, “Aryl ether derivatives and processes for their preparation and herbicidal and desiccant compositions containing them” (Ishihara Sangyo Kaisha, Ltd., priority 2001, dated 2003)

Tests used:
Format in all cases: in vivo
[1] = tested on: barnyardgrass (Echinochloa crus-galli, ECHCG); test: Pre-emerge greenhouse herbicide activity screening, phytotoxicity rating; details: 14 days after application
Outline: (§1)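 Ratings taken 14 days after treatment on a 0–100 scale, 100 meaning complete plant death. Post-emerge: 2-3 leaf plants, 0.25% v/v surfactant added; pre-emerge: seeds sown a day ahead, soil surface-watered after spraying. Rates 15–1000 g ai/ha in acetone, 187 l/ha.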

[2] = tested on: common ragweed (Ambrosia artemisiifolia L., AMBEL); test: as above; details: 14 days after application
Outline: as §1

[3] = tested on: green foxtail (Setaria viridis, SETVI); test: as above; details: 14 days after application
Outline: as §1

[4] = tested on: ivyleaf morningglory (Ipomoea hederacea, IPOHE); test: as above; details: 14 days after application
Outline: as §1

[5] = tested on: johnsongrass (Sorghum halepense, SORHA); test: as above; details: 14 days after application
Outline: as §1

[6] = tested on: lambsquarters (Chenopodium album, CHEAL); test: as above; details: 14 days after application
Outline: as §1

[7] = tested on: large crabgrass (Digitaria sanguinalis, DIGSA); test: as above; details: 14 days after application
Outline: as §1

[8] = tested on: redroot pigweed (Amaranthus retroflexus, AMARE); test: as above; details: 14 days after application
Outline: as §1

[9] = tested on: sicklepod (Cassia obtusifolia, CASOB); test: as above; details: 14 days after application
Outline: as §1

[10] = tested on: velvetleaf (Abutilon theophrasti, ABUTH); test: as above; details: 14 days after application
Outline: as §1

[11] = tested on: field corn (Zea mays L., var. Dekalb 535, CORN); test: Pre-emerge greenhouse screening, crop safety (phytotoxicity rating); details: 14 days after application
Outline: as §1

[12] = tested on: soybean (Glycine max L., var. Pella 86, SOY); test: as above; details: 14 days after application
Outline: as §1

[13] = tested on: upland rice (Oryza sp., var.Tebonnet, RICE); test: as above; details: 14 days after application
Outline: as §1

[14] = tested on: barnyardgrass (Echinochloa crus-galli, ECHCG); test: Post-emerge greenhouse herbicide activity screening, phytotoxicity rating; details: 14 days after application
Outline: as §1

[15] = tested on: common ragweed (Ambrosia artemisiifolia L., AMBEL); test: as above
Outline: as §1

[16] = tested on: green foxtail (Setaria viridis, SETVI); test: as above
Outline: as §1

[17] = tested on: ivyleaf morningglory (Ipomoea hederacea, IPOHE); test: as above; details: 14 days after application
Outline: as §1

[18] = tested on: johnsongrass (Sorghum halepense, SORHA); test: as above; details: 14 days after application
Outline: as §1

[19] = tested on: lambsquarters (Chenopodium album, CHEAL); test: as above
Outline: as §1

[20] = tested on: large crabgrass (Digitaria sanguinalis, DIGSA); test: as above; details: 14 days after application
Outline: as §1

[21] = tested on: redroot pigweed (Amaranthus retroflexus, AMARE); test: as above
Outline: as §1

[22] = tested on: sicklepod (Cassia obtusifolia, CASOB); test: as above
Outline: as §1

[23] = tested on: velvetleaf (Abutilon theophrasti, ABUTH); test: as above; details: 14 days after application
Outline: as §1

[24] = tested on: field corn (Zea mays L., var. Dekalb 535, CORN); test: Post-emerge greenhouse screening, crop safety / corn selectivity (phytotoxicity rating); details: 14 days after application
Outline: as §1

[25] = tested on: soybean (Glycine max L., var. Pella 86, SOY); test: Post-emerge greenhouse screening, crop safety (phytotoxicity rating); details: 14 days after application
Outline: as §1

[26] = tested on: upland rice (Oryza sp., var.Tebonnet, RICE); test: as above; details: 14 days after application
Outline: as §1

[27] = 125 g ai/ha, 14 days after application
[28] = 250 g ai/ha, 14 days after application

## COc1ccc(Oc2cc(-n3c(=O)cc(C(F)(F)F)n(C)c3=S)c(F)cc2C#N)cc1 [Compound 1-72]
[1]; 125 g ai/ha
  ECHCG phytotoxicity rating (0-100 scale): 20
[1]; 250 g ai/ha
  ECHCG phytotoxicity rating (0-100 scale): 80
[2]; 125 g ai/ha
  AMBEL phytotoxicity rating (0-100 scale): 95
[2]; 250 g ai/ha
  AMBEL phytotoxicity rating (0-100 scale): 95
[3]; 125 g ai/ha
  SETVI phytotoxicity rating (0-100 scale): 20
[3]; 250 g ai/ha
  SETVI phytotoxicity rating (0-100 scale): 80
[4]; 125 g ai/ha
  IPOHE phytotoxicity rating (0-100 scale): 95
[4]; 250 g ai/ha
  IPOHE phytotoxicity rating (0-100 scale): 100
[5]; 125 g ai/ha
  SORHA phytotoxicity rating (0-100 scale): 60
[5]; 250 g ai/ha
  SORHA phytotoxicity rating (0-100 scale): 60
[6]; 125 g ai/ha
  CHEAL phytotoxicity rating (0-100 scale): 100
[6]; 250 g ai/ha
  CHEAL phytotoxicity rating (0-100 scale): 100
[7]; 125 g ai/ha
  DIGSA phytotoxicity rating (0-100 scale): 95
[7]; 250 g ai/ha
  DIGSA phytotoxicity rating (0-100 scale): 99
[8]; 125 g ai/ha
  AMARE phytotoxicity rating (0-100 scale): 100
[8]; 250 g ai/ha
  AMARE phytotoxicity rating (0-100 scale): 100
[9]; 125 g ai/ha
  CASOB phytotoxicity rating (0-100 scale): 65
[9]; 250 g ai/ha
  CASOB phytotoxicity rating (0-100 scale): 100
[10]; 125 g ai/ha
  ABUTH phytotoxicity rating (0-100 scale): 100
[10]; 250 g ai/ha
  ABUTH phytotoxicity rating (0-100 scale): 100
[11]; 125 g ai/ha
  CORN crop damage, phytotoxicity rating (0-100 scale): 5
[11]; 250 g ai/ha
  CORN crop damage, phytotoxicity rating (0-100 scale): 8
[12]; 125 g ai/ha
  SOY crop damage, phytotoxicity rating (0-100 scale): 0
[12]; 250 g ai/ha
  SOY crop damage, phytotoxicity rating (0-100 scale): 40
[13]; 125 g ai/ha
  RICE crop damage, phytotoxicity rating (0-100 scale): 0
[13]; 250 g ai/ha
  RICE crop damage, phytotoxicity rating (0-100 scale): 0
[14]; 125 g ai/ha
  ECHCG phytotoxicity rating (0-100 scale): 0
[14]; 250 g ai/ha
  ECHCG phytotoxicity rating (0-100 scale): 0
[15]; [27]
  AMBEL phytotoxicity rating (0-100 scale): 0
[15]; [28]
  AMBEL phytotoxicity rating (0-100 scale): 0
[16]; [27]
  SETVI phytotoxicity rating (0-100 scale): 0
[16]; [28]
  SETVI phytotoxicity rating (0-100 scale): 0
[17]; 125 g ai/ha
  IPOHE phytotoxicity rating (0-100 scale): 60
[17]; 250 g ai/ha
  IPOHE phytotoxicity rating (0-100 scale): 60
[18]; 125 g ai/ha
  SORHA phytotoxicity rating (0-100 scale): 0
[18]; 250 g ai/ha
  SORHA phytotoxicity rating (0-100 scale): 0
[19]; [27]
  CHEAL phytotoxicity rating (0-100 scale): 100
[19]; [28]
  CHEAL phytotoxicity rating (0-100 scale): 100
[20]; 125 g ai/ha
  DIGSA phytotoxicity rating (0-100 scale): 0
[20]; 250 g ai/ha
  DIGSA phytotoxicity rating (0-100 scale): 0
[21]; [27]
  AMARE phytotoxicity rating (0-100 scale): 80
[21]; [28]
  AMARE phytotoxicity rating (0-100 scale): 90
[22]; [27]
  CASOB phytotoxicity rating (0-100 scale): 0
[22]; [28]
  CASOB phytotoxicity rating (0-100 scale): 0
[23]; 125 g ai/ha
  ABUTH phytotoxicity rating (0-100 scale): 80
[23]; 250 g ai/ha
  ABUTH phytotoxicity rating (0-100 scale): 90
[24]; 125 g ai/ha
  CORN crop damage, phytotoxicity rating (0-100 scale): 0
[24]; 250 g ai/ha
  CORN crop damage, phytotoxicity rating (0-100 scale): 0
[25]; 125 g ai/ha
  SOY crop damage, phytotoxicity rating (0-100 scale): 0
[25]; 250 g ai/ha
  SOY crop damage, phytotoxicity rating (0-100 scale): 0
[26]; 125 g ai/ha
  RICE crop damage, phytotoxicity rating (0-100 scale): 0
[26]; 250 g ai/ha
  RICE crop damage, phytotoxicity rating (0-100 scale): 0

## Cn1c(=S)n(C)c(=O)n(-c2cc(Oc3ncccn3)c(Cl)cc2F)c1=O [Compound 2-1, 3-[4-Chloro-2-fluoro-5-(2-pyrimidinyloxy)phenyl]-5,6-dihydro-1,5-dimethyl-6-thioxo-1,3,5-triazine-2,4(1H,3H)-dione]
[1]; 125 g ai/ha
  ECHCG phytotoxicity rating (0-100 scale): 100
[1]; 250 g ai/ha
  ECHCG phytotoxicity rating (0-100 scale): 100
[2]; 125 g ai/ha
  AMBEL phytotoxicity rating (0-100 scale): 100
[2]; 250 g ai/ha
  AMBEL phytotoxicity rating (0-100 scale): 100
[3]; 125 g ai/ha
  SETVI phytotoxicity rating (0-100 scale): 100
[3]; 250 g ai/ha
  SETVI phytotoxicity rating (0-100 scale): 100
[4]; 125 g ai/ha
  IPOHE phytotoxicity rating (0-100 scale): 100
[4]; 250 g ai/ha
  IPOHE phytotoxicity rating (0-100 scale): 100
[5]; 125 g ai/ha
  SORHA phytotoxicity rating (0-100 scale): 100
[5]; 250 g ai/ha
  SORHA phytotoxicity rating (0-100 scale): 100
[6]; 125 g ai/ha
  CHEAL phytotoxicity rating (0-100 scale): 100
[6]; 250 g ai/ha
  CHEAL phytotoxicity rating (0-100 scale): 100
[7]; 125 g ai/ha
  DIGSA phytotoxicity rating (0-100 scale): 100
[7]; 250 g ai/ha
  DIGSA phytotoxicity rating (0-100 scale): 100
[8]; 125 g ai/ha
  AMARE phytotoxicity rating (0-100 scale): 100
[8]; 250 g ai/ha
  AMARE phytotoxicity rating (0-100 scale): 100
[9]; 125 g ai/ha
  CASOB phytotoxicity rating (0-100 scale): 100
[9]; 250 g ai/ha
  CASOB phytotoxicity rating (0-100 scale): 100
[10]; 125 g ai/ha
  ABUTH phytotoxicity rating (0-100 scale): 100
[10]; 250 g ai/ha
  ABUTH phytotoxicity rating (0-100 scale): 100
[11]; 125 g ai/ha
  CORN crop damage, phytotoxicity rating (0-100 scale): 50
[11]; 250 g ai/ha
  CORN crop damage, phytotoxicity rating (0-100 scale): 65
[12]; 125 g ai/ha
  SOY crop damage, phytotoxicity rating (0-100 scale): 90
[12]; 250 g ai/ha
  SOY crop damage, phytotoxicity rating (0-100 scale): 100
[13]; 125 g ai/ha
  RICE crop damage, phytotoxicity rating (0-100 scale): 99
[13]; 250 g ai/ha
  RICE crop damage, phytotoxicity rating (0-100 scale): 99
[14]; 125 g ai/ha
  ECHCG phytotoxicity rating (0-100 scale): 50
[14]; 250 g ai/ha
  ECHCG phytotoxicity rating (0-100 scale): 80
[15]; 31.3 g ai/ha
  AMBEL phytotoxicity rating (0-100 scale): 50
[15]; 62.5 g ai/ha
  AMBEL phytotoxicity rating (0-100 scale): 50
[15]; [27]
  AMBEL phytotoxicity rating (0-100 scale): 60
[15]; [28]
  AMBEL phytotoxicity rating (0-100 scale): 65
[16]; 31.3 g ai/ha
  SETVI phytotoxicity rating (0-100 scale): 0
[16]; 62.5 g ai/ha
  SETVI phytotoxicity rating (0-100 scale): 60
[16]; [27]
  SETVI phytotoxicity rating (0-100 scale): 70
[16]; [28]
  SETVI phytotoxicity rating (0-100 scale): 80
[17]; 125 g ai/ha
  IPOHE phytotoxicity rating (0-100 scale): 80
[17]; 250 g ai/ha
  IPOHE phytotoxicity rating (0-100 scale): 99
[18]; 125 g ai/ha
  SORHA phytotoxicity rating (0-100 scale): 60
[18]; 250 g ai/ha
  SORHA phytotoxicity rating (0-100 scale): 70
[19]; 31.3 g ai/ha
  CHEAL phytotoxicity rating (0-100 scale): 100
[19]; 62.5 g ai/ha
  CHEAL phytotoxicity rating (0-100 scale): 100
[19]; [27]
  CHEAL phytotoxicity rating (0-100 scale): 100
[19]; [28]
  CHEAL phytotoxicity rating (0-100 scale): 100
[20]; 125 g ai/ha
  DIGSA phytotoxicity rating (0-100 scale): 55
[20]; 250 g ai/ha
  DIGSA phytotoxicity rating (0-100 scale): 55
[21]; 31.3 g ai/ha
  AMARE phytotoxicity rating (0-100 scale): 100
[21]; 62.5 g ai/ha
  AMARE phytotoxicity rating (0-100 scale): 100
[21]; [27]
  AMARE phytotoxicity rating (0-100 scale): 100
[21]; [28]
  AMARE phytotoxicity rating (0-100 scale): 100
[22]; 31.3 g ai/ha
  CASOB phytotoxicity rating (0-100 scale): 60
[22]; 62.5 g ai/ha
  CASOB phytotoxicity rating (0-100 scale): 60
[22]; [27]
  CASOB phytotoxicity rating (0-100 scale): 65
[22]; [28]
  CASOB phytotoxicity rating (0-100 scale): 75
[23]; 125 g ai/ha
  ABUTH phytotoxicity rating (0-100 scale): 100
[23]; 250 g ai/ha
  ABUTH phytotoxicity rating (0-100 scale): 100
[24]; 125 g ai/ha
  CORN crop damage, phytotoxicity rating (0-100 scale): 0
[24]; 250 g ai/ha
  CORN crop damage, phytotoxicity rating (0-100 scale): 5
[25]; 125 g ai/ha
  SOY crop damage, phytotoxicity rating (0-100 scale): 50
[25]; 250 g ai/ha
  SOY crop damage, phytotoxicity rating (0-100 scale): 65
[26]; 125 g ai/ha
  RICE crop damage, phytotoxicity rating (0-100 scale): 15
[26]; 250 g ai/ha
  RICE crop damage, phytotoxicity rating (0-100 scale): 40
